Measurements from patent US20070167499A1, “Biaryl linked hydroxamates: preparation and pharmaceutical applications” (A*BIO Pte Ltd., priority 2003, published 2007).

Tested on: Ramos Burkitt-lymphoma cells
Experiment: Apoptosis assay (Annexin V / PI flow cytometry)
Format: cell-based, human
Settings: 48 h after treatment with 10 μM
Description: In various therapies such as for proliferative disorders like cancer, the selective induction of apoptosis in proliferating cells such as tumor cells is one of the desirable approaches, and can be mediated by treatment with various anti-proliferative compounds [Blagosklonny MV, Oncogene, 23(16): 2967 (2004); Kaufmann and Eamshaw, Exp Cell Res. 256(1): 42-9 (2000)]. Programmed cell death or apoptosis is the cellular response to stress factors such as DNA damage introduced during conventional anti-cancer treatment. The concerted sequence of events during apoptosis, clearly differentiate this pathway from a non-coordinated form of cell death called necrosis. During the course of apoptosis, characteristic phenotypical cellular changes occur, which include the condensation of chromatin, the shrinkage of cells and finally the fragmentation of chromosomal DNA. One of the very early change caused by apoptotic events occurs in the phospholipids bilayer of the plasma membrane. The phospholipid phosphatidylserine is translocated from the inner to the outer side of the plasma-membrane and, as a result, is exposed to the extracellular space. One way of detecting early apoptotic cells is to determine the amount of phosphatidyl-serine at the extracellular side of the plasma-membrane which is accomplished by the standard flow cytometric method of Annexin V staining. The phospholipids recognizing protein Annexin V binds with high affinity to these inverted and exposed phosphatidyl-serines.
The ability of the compounds in this invention to induce apoptosis was tested in Ramos Burkitt-lymphoma cells. This cell line is one of the gold standard cell lines commonly used as a tissue culture model for B cell lymphoma. Representative compounds as indicated below were added to 80,000 cells per 500 μl growth medium (RPMI1640 medium supplemented with 2 mM L-Glutamine, 10% heat-inactivated FBS, 1 mM Na-Pyruvate and 10 mM HEPES) in 24 well format at various concentrations. Two days after the start of treatment, cells were collected and subjected to the Annexin V staining protocol following the instructions of the manufacturer (BD Biosciences). By using propidium iodide (PI) as a viability control, cells that stain positive for Annexin V, but negative for PI, are undergoing apoptosis.

O=C(Cc1ccc(-c2csc(NC(=O)Cc3ccccc3)n2)s1)NO [Example 1, N-Hydroxy-2-[5-(2-phenylacetylamino-thiazol-4-yl)-thiophen-2-yl]-acetamide]
% cells in late apoptosis (Ramos): 76%
